Experimental data reported in patent US20050209157A1, “Short bioactive peptides and methods for their use” (priority 2001, published 2005).
In brackets after ≈: the same amount, converted by molar mass. No end group written: not given here.

Assays:
in vitro = conditions: human, WI38 normal lung fibroblast cells
[1] = tested on: human leukocyte (WBC) cells; assay: Stimulation and proliferation of leukocytes, Alamar Blue; type: cell-based; conditions: 48 hours
Experimental: In vitro viability of human leukocyte cells in the presence of different peptides at different concentrations was determined by an Alamar Blue protocol. Alamar Blue (Promega, Madison, Wis.) is an indicator dye, formulated to measure quantitatively the proliferation and cytotoxicity of the cells. The dye consists of an oxidation-reduction (redox) indicator that yields a calorimetric change and a fluorescent signal in response to cellular metabolic activity.
Assay protocol: Blood from a human was drawn and centrifuged at 1500 rpm for 15 minutes at room temperature. The buffy coat cells at the plasma-red blood cell interface were aspirated. Buffy coat cells (mainly lymphocyte cells) were then transferred into 15 ml centrifuge tubes containing 5 ml of RPMI-1640 medium+10% Fetal Bovine Serum (Gibco, Grand Island, N.Y.). Additional medium was added to the tubes to bring the volume up to 10 ml. The buffy coat suspension was then carefully layered on 5 ml of Histopaque (Sigma Chemical Co., St. Louis, Mo.) and centrifuged at 1500 rpm for 30 minutes at room temperature. The interface which is mostly PBMCs (peripheral mononuclear cells) was aspirated and transferred to a 15 ml conical centrifuge tube and, resuspended in 2 ml cold RPMI-1640 and brought up to 15 ml with cold RPMI-1640 medium. Cells were centrifuged at 1500 rpm for 10 minutes. The supernatant was then aspirated and discarded. The cell pellet was re-suspended in 1 ml of cold RPMI 1640 and brought up to 15 ml with RPMI medium. This step was repeated twice, except that in the last step, the cells were resuspended with 1 ml of cold RPMI-1640 medium and cell counts were performed with a hemocytometer according to the Sigma cell culture catalogue.
Pokewood mitogen was used as a control along with positive and negative controls. Negative control cells were killed with 70% methanol. Positive (+) control cells were incubated in RPMI medium (untreated). […] of AlamarBlue was added to the cells, and readings were taken after 24 hours, 48 hours, 72 hours, and 96 hours using a fluorimeter (excitation 544/transmission 590 nm).
Calculations were performed using the following formula. The peptide treated sample and positive control were adjusted for negative control. [formula]
Using the protocol described immediately above, about 100-150 peptides were screened for their stimulatory and/or inhibitory actions upon the growth of human leukocyte (“WBC”) cells as compared to the growth of untreated positive control cells.
The Alamar Blue stain used in the protocol permeates both cell and nuclear membranes, and is metabolized in the mitochondria to cause the change in color. The resulting fluorometric response is therefore a result of total mitochondrial activity caused by cell stimulation and/or mitosis (cell proliferation).

[2] = tested on: human red blood cells (RBC); assay: in vitro; type: cell-based; conditions: for Peptide toxicity RBC LD/50: human red blood cells; for LD50: hemolytic assay, concentration at 50% hemolysis, 1 hour at 37° C.
WI38 = conditions: MTT, 24 hours with peptide; normal fibroblast line
[3] = tested on: yeast (Saccharomyces cerevisiae); assay: Antimicrobial assay I, yeast assay in RPMI 1640; type: cell-based; conditions: RPMI 1640 media
[4] = tested on: Staphylococcus aureus ATCC 6538; assay: Antimicrobial assay I, MIC by OD measurement; type: cell-based; conditions: 37° C. for 24 hours, absorbance 620 nm
[5] = tested on: Pseudomonas aeruginosa ATCC 9027; assay: Antimicrobial assay I, MIC by OD measurement; type: cell-based; conditions: 37° C. for 24 hours, absorbance 620 nm
H1299 = assay: Anti-cancer assay, MTT, LD50; type: cell-based; conditions: 24 hours with peptide, lung large cell carcinoma
From the text: (§1) Numbers are LD50 values (μg/mL).

SW480 = assay: Anti-cancer assay, MTT, LD50; type: cell-based; conditions: SW480 colon adenocarcinoma line, 24 hours with peptide
From the text: as §1

PC3 = assay: Anti-cancer assay, MTT, LD50; type: cell-based; conditions: 24 hours with peptide, prostate adenocarcinoma
From the text: as §1

HeLaS3 = assay: Anti-cancer assay, MTT, LD50; type: cell-based; conditions: 24 hours with peptide, cervical carcinoma
From the text: as §1

BMKC = assay: Anti-cancer assay, MTT, LD50; type: cell-based; conditions: BMKC cloned melanoma line, 24 hours with peptide
From the text: as §1

MCF7 = assay: Anti-cancer assay, MTT, LD50; type: cell-based; conditions: MCF7 breast adenocarcinoma line, MTT, 24 hours with peptide
From the text: as §1

[6] = Peptide toxicity WI-38 LD/50, human fibroblast cells
[7] = LD50 WI38, WI38 normal lung fibroblast line, MTT, 24 hours with peptide

For FAKLLAKLAKKLL-NH2 [compound 25], the CC50 at 24 h (in vitro; [6]) was 5 µg/mL, the “Peptide treated cell activity Percent stimulation relative to control” value ([1]; 0.1 ug/ml) was 78% and the “Peptide treated cell activity Percent stimulation relative to control” value ([1]; 1 ug/ml) was 82%. For the same compound, the “Peptide treated cell activity Percent stimulation relative to control” value ([1]; 10 ug/ml) was 71%, the “Peptide treated cell activity Percent stimulation relative to control” value ([1]; 100 ug/ml) was 14% and the “Peptide treated cell activity Percent stimulation relative to control” value ([1]; 500 ug/ml) was 12%. The “Peptide toxicity RBC LD/50” value [2] was 20.
With “MPKWKVFKKIEKVGRNIRNGIVKAGPAIAVLGEAKALG-NH2 [compound 5]” the CC50 at 24 h (in vitro; [6]) was 950 µg/mL, the “Peptide treated cell activity Percent stimulation relative to control” value ([1]; 0.1 ug/ml) was 111% and the “Peptide treated cell activity Percent stimulation relative to control” value ([1]; 1 ug/ml) was 115%. The “Peptide treated cell activity Percent stimulation relative to control” value ([1]; 10 ug/ml) was 118%, the “Peptide treated cell activity Percent stimulation relative to control” value ([1]; 100 ug/ml) was 116% and the “Peptide treated cell activity Percent stimulation relative to control” value ([1]; 500 ug/ml) was 101%. The “Peptide toxicity RBC LD/50” value [2] was >1000.
For FAKLLAKALKKAL-NH2 [compound 66], the CC50 at 24 h (in vitro; [6]) was 210 µg/mL, the “Peptide treated cell activity Percent stimulation relative to control” value ([1]; 0.1 ug/ml) was 100% and the “Peptide treated cell activity Percent stimulation relative to control” value ([1]; 1 ug/ml) was 102%. For the same compound, the “Peptide treated cell activity Percent stimulation relative to control” value ([1]; 10 ug/ml) was 97%, the “Peptide treated cell activity Percent stimulation relative to control” value ([1]; 100 ug/ml) was 37% and the “Peptide treated cell activity Percent stimulation relative to control” value ([1]; 500 ug/ml) was 17%. For the same compound, the “Peptide toxicity RBC LD/50” value [2] was 500.
In the case of FALALKALKKLKKALKKAL-NH2 [compound 12], the CC50 at 24 h (in vitro; [6]) is reported as 37 µg/mL, the “Peptide treated cell activity Percent stimulation relative to control” value ([1]; 0.1 ug/ml) is reported as 108% and the “Peptide treated cell activity Percent stimulation relative to control” value ([1]; 1 ug/ml) is reported as 110%. The “Peptide treated cell activity Percent stimulation relative to control” value ([1]; 10 ug/ml) was 99%, the “Peptide treated cell activity Percent stimulation relative to control” value ([1]; 100 ug/ml) was 30% and the “Peptide treated cell activity Percent stimulation relative to control” value ([1]; 500 ug/ml) was 23%. For the same compound, the “Peptide toxicity RBC LD/50” value [2] was 125.
With FAKLLALALKKAL-NH2 [compound 165] the “Peptide treated cell activity Percent stimulation relative to control” value ([1]; 0.1 ug/ml) was 107%, the “Peptide treated cell activity Percent stimulation relative to control” value ([1]; 1 ug/ml) was 109% and the “Peptide treated cell activity Percent stimulation relative to control” value ([1]; 10 ug/ml) was 106%. The “Peptide treated cell activity Percent stimulation relative to control” value ([1]; 100 ug/ml) was 27%, the “Peptide treated cell activity Percent stimulation relative to control” value ([1]; 500 ug/ml) was 22% and the “Peptide toxicity RBC LD/50” value [2] was 350.
In the case of FAKLLAKLAKAKA-NH2 [compound 61], the CC50 at 24 h (in vitro; [6]) is reported as > 1000 µg/mL, the “Peptide treated cell activity Percent stimulation relative to control” value ([1]; 0.1 ug/ml) is reported as 110% and the “Peptide treated cell activity Percent stimulation relative to control” value ([1]; 1 ug/ml) is reported as 115%. For the same compound, the “Peptide treated cell activity Percent stimulation relative to control” value ([1]; 10 ug/ml) was 116%, the “Peptide treated cell activity Percent stimulation relative to control” value ([1]; 100 ug/ml) was 124% and the “Peptide treated cell activity Percent stimulation relative to control” value ([1]; 500 ug/ml) was 114%. For the same compound, the “Peptide toxicity RBC LD/50” value [2] was >1000.
With CC(C)C[C@H](NC(=O)[C@H](C)NC(=O)[C@H](CC(C)C)NC(=O)[C@H](CCCCN)NC(=O)[C@H](C)NC(=O)[C@H](CC(C)C)NC(=O)[C@H](CCCCN)NC(=O)[C@H](CCCCN)NC(=O)[C@H](C)NC(=O)[C@H](CC(C)C)NC(=O)[C@H](CCCCN)NC(=O)[C@H](C)NC(=O)[C@H](CC(C)C)NC(=O)[C@H](CCCCN)NC(=O)[C@H](CCCCN)NC(=O)[C@H](C)NC(=O)[C@@H](N)Cc1ccccc1)C(N)=O [compound 17] the CC50 at 24 h (in vitro; [6]) was 8 µg/mL (≈ 4.31 µM), the “Peptide treated cell activity Percent stimulation relative to control” value ([1]; 0.1 ug/ml) was 82% and the “Peptide treated cell activity Percent stimulation relative to control” value ([1]; 1 ug/ml) was 76%. For the same compound, the “Peptide treated cell activity Percent stimulation relative to control” value ([1]; 10 ug/ml) was 61%, the “Peptide treated cell activity Percent stimulation relative to control” value ([1]; 100 ug/ml) was 18% and the “Peptide treated cell activity Percent stimulation relative to control” value ([1]; 500 ug/ml) was 16%. For the same compound, the “Peptide toxicity RBC LD/50” value [2] was 200.
With VAKLLAKLAKKLL-NH2 [compound 30] the CC50 at 24 h (in vitro; [6]) was 60 µg/mL, the “Peptide treated cell activity Percent stimulation relative to control” value ([1]; 0.1 ug/ml) was 74% and the “Peptide treated cell activity Percent stimulation relative to control” value ([1]; 1 ug/ml) was 68%. For the same compound, the “Peptide treated cell activity Percent stimulation relative to control” value ([1]; 10 ug/ml) was 62%, the “Peptide treated cell activity Percent stimulation relative to control” value ([1]; 100 ug/ml) was 13% and the “Peptide treated cell activity Percent stimulation relative to control” value ([1]; 500 ug/ml) was 13%. The “Peptide toxicity RBC LD/50” value [2] was 130.
For “FAKKFAKKFKKFAKKFAKFAFAF-NH2 [compound 147]”, the CC50 at 24 h (in vitro) was 66 µg/mL, the “Peptide treated cell activity Percent stimulation relative to control” value ([1]; 0.1 ug/ml) was 100% and the “Peptide treated cell activity Percent stimulation relative to control” value ([1]; 1 ug/ml) was 94%. The “Peptide treated cell activity Percent stimulation relative to control” value ([1]; 10 ug/ml) was 83%, the “Peptide treated cell activity Percent stimulation relative to control” value ([1]; 100 ug/ml) was 22% and the “Peptide treated cell activity Percent stimulation relative to control” value ([1]; 500 ug/ml) was 20%. For the same compound, the “Peptide toxicity RBC LD/50” value [2] was 10.
In the case of FAKLLAKLAKAKA-NH2 [P95], the CC50 at 24 h (in vitro; [7]) is reported as 250 µg/mL, the “WI38 LD50” value (WI38) is reported as 250 µg/mL and the “yeast (MIC or MFC)” value [3] is reported as “> (> indicates greater than 200 μg/mL)”. The LD50 [2] was “> (> indicates greater than 1000)”, the “staph6538 (MIC)” value [4] was 100 µg/mL and the “paerug9027 (MIC)” value [5] was 200 µg/mL. For the same compound, the “H1299 LD50” value (H1299) was “> (> indicates greater than 1000)”, the “LD50 SW480” value (SW480) was “> (> indicates greater than 1000)” and the “PC3 LD50” value (PC3) was “> (> indicates greater than 1000)”. The “HeLaS3 LD50” value (HeLaS3) was “> (> indicates greater than 1000)”, the “LD50 BMKC” value (BMKC) was 820 µg/mL and the “LD50 MCF7” value (MCF7) was “> (> indicates greater than 1000)”.
For FALALKLAKKL-NH2 [P178], the CC50 at 24 h (in vitro; [7]) was 405 µg/mL, the “WI38 LD50” value (WI38) was 405 µg/mL and the “yeast (MIC or MFC)” value [3] was “> (> indicates greater than 200 μg/mL)”. The LD50 [2] was “> (> indicates greater than 1000)”, the “staph6538 (MIC)” value [4] was 200 µg/mL and the “paerug9027 (MIC)” value [5] was 100 µg/mL. The “H1299 LD50” value (H1299) was “> (> indicates greater than 1000)”, the “LD50 SW480” value (SW480) was “> (> indicates greater than 1000)” and the “PC3 LD50” value (PC3) was “> (> indicates greater than 1000)”. For the same compound, the “HeLaS3 LD50” value (HeLaS3) was “> (> indicates greater than 1000)”, the “LD50 BMKC” value (BMKC) was 640 µg/mL and the “LD50 MCF7” value (MCF7) was 770 µg/mL.
With FAKLLAKKLL-NH2 [P57] the CC50 at 24 h (in vitro; [7]) was 900 µg/mL, the “WI38 LD50” value (WI38) was 900 µg/mL and the “yeast (MIC or MFC)” value [3] was 200 µg/mL. The LD50 [2] was “> (> indicates greater than 1000)”, the “staph6538 (MIC)” value [4] was 100 µg/mL and the “paerug9027 (MIC)” value [5] was 200 µg/mL. The “H1299 LD50” value (H1299) was “> (> indicates greater than 1000)”, the “LD50 SW480” value (SW480) was 740 µg/mL and the “PC3 LD50” value (PC3) was “> (> indicates greater than 1000)”. The “HeLaS3 LD50” value (HeLaS3) was 830 µg/mL, the “LD50 BMKC” value (BMKC) was 740 µg/mL and the “LD50 MCF7” value (MCF7) was “> (> indicates greater than 1000)”.
